From publication PMC7029851, “Antibacterial activity of novel dual bacterial DNA type II topoisomerase inhibitors” (PLoS ONE, 2020) come the findings set out here.

Where a name gives a salt, the structure may show the parent alone. Where only a bound is given, the exact number is not on record here.

For one experiment, the system named is C. difficile ATCC 700057. Kind of experiment: MIC, broth microdilution. It is filed as cell-based, Clostridium difficile. Particulars: Clostridioides difficile, ATCC700057. The protocol: MICs were determined by the broth microdilution method (the agar dilution method was used only for N. gonorrhoeae) according to CLSI guidelines. […] The MIC values of antibiotics used in clinical practice were interpreted according to the susceptibility interpretive criteria reported in the appropriate CLSI Tables (M100-S25, CLSI, 2015).

Experiment [1] relates to C. difficile clinical isolates (n = 21). Briefly: MIC, multidrug-resistant clinical isolates. It is filed as cell-based, Clostridium difficile. Particulars: Clostridioides difficile, C. difficile clinical isolates (n = 21); for MIC50: read-out: MIC50; for MIC90: read-out: MIC90; for MIC: read-out: MIC range. The protocol:
(§1) The bacterial reference strains used in this study were purchased from ATCC (American Type Culture Collection) via LGC Standards (Middlesex, UK). […] Clinical MDR isolates were provided by Aptuit, the IHMA Europa Sàrl repository (Epalinges, Switzerland) and the Statens Serum Institute (Copenhagen, Denmark).
(§2) MICs were determined by the broth microdilution method (the agar dilution method was used only for N. gonorrhoeae) according to CLSI guidelines.
(§3) The results obtained using clinical isolates are reported as MIC50 and MIC90 values.

Experiment [2] deals with E. coli clinical isolates (n = 36). Kind of experiment: MIC, multidrug-resistant clinical isolates. Type of experiment: cell-based, Escherichia coli. As to conditions: Escherichia coli, E. coli MDR clinical isolates (n = 36); for MIC50: read-out: MIC50; for MIC90: read-out: MIC90. Here is the method:
as §1, §2, §3

The next experiment has as its system E. coli 4SI. Briefly: MIC, broth microdilution. It is filed as cell-based. Particulars: Escherichia coli, ciprofloxacin-resistant. The protocol:
as §2
On the technique in general: In broth dilution the organism is exposed to a series of concentrations in liquid medium.

The next experiment relates to A. baumannii APV00473. Briefly: MIC, broth microdilution. Particulars: Acinetobacter baumannii; A. baumannii APV00473, ciprofloxacin-resistant. It is filed as cell-based. The protocol:
as §2

The subject of a further experiment is S. pyogenes APV00074. Kind of experiment: MIC, broth microdilution. It is filed as cell-based. Particulars: Streptococcus pyogenes; S. pyogenes APV00074, ciprofloxacin-susceptible. The protocol:
as §2

For a further experiment, the system named is S. pyogenes APV00083. Kind of experiment: MIC, broth microdilution. Particulars: Streptococcus pyogenes; S. pyogenes APV00083, ciprofloxacin-susceptible. It is filed as cell-based. The protocol:
as §2

Another experiment concerns A. baumannii ATCC 19606. Kind of experiment: MIC, broth microdilution. Type of experiment: cell-based. Particulars: Acinetobacter baumannii, ATCC19606; A. baumannii ATCC 19606, ciprofloxacin-susceptible. Here is the method: as §2
In experiment [3] the test system is H. influenzae AcrA- mutant. Briefly: microbe, parasite or virus in culture. Type of experiment: cell-based. Particulars: Haemophilus influenzae. The essentials:
(§4)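 MICs against efflux-deficient mutant strains were determined by broth microdilution following CLSI guidelines.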

The test system of experiment [4] is K. pneumoniae AcrAB- mutant. Kind of experiment: microbe, parasite or virus in culture. Type of experiment: cell-based. Particulars: Klebsiella pneumoniae. The essentials: as §4
The subject of experiment [5] is S. aureus clinical isolates (n = 10). Kind of experiment: microbe, parasite or virus in culture. It is filed as cell-based, Staphylococcus aureus. As to conditions: S. aureus MDR clinical isolates (n = 10); for MIC50 / MIC90: Staphylococcus aureus; for MIC50: read-out: MIC50; for MIC90: read-out: MIC90. Here is the method:
as §1, §2, §3

The molecule `Cl.O=c1oc2ccc(F)cc2c2[nH]c(CN[C@H]3CC[C@H](n4c(=O)ccc5ccc(F)cc54)CC3)cc12` [Compound 6, 8-fluoro-2-({[trans-4-(7-fluoro-2-oxoquinolin-1(2H)-yl)cyclohexyl]amino}methyl)[1]benzopyrano[4,3-b]pyrrol-4(1H)-one hydrochloride] yielded an MIC against C. difficile ATCC 700057 of 0.5 µg/mL. In experiment [1], the MIC50 was determined as 0.25 µg/mL, the MIC90 came out at 0.25 µg/mL and the MIC lay within 0.06 to 0.25 µg/mL. Moreover, in [2], the MIC is 0.25 to 4 µg/mL, the MIC50 turned out to be 2 µg/mL and the MIC90 came to 4 µg/mL.

Consider `Cl.O=c1oc2ccc(F)cc2c2[nH]c(CN[C@H]3CC[C@H](n4c(=O)ccc5ncc(F)cc54)CC3)cc12` [Compound 3, 8-fluoro-2-({[trans-4-(7-fluoro-2-oxo-1,5-naphthyridin-1(2H)-yl)cyclohexyl]amino}methyl)[1]benzopyrano[4,3-b]pyrrol-4(1H)-one hydrochloride], for which the MIC with C. difficile ATCC 700057 was 0.25 µg/mL; in the experiment on E. coli 4SI it was 0.12 µg/mL; with A. baumannii APV00473 it was not above 0.06 µg/mL; in the experiment with S. pyogenes APV00074, not above 0.06 µg/mL; in the experiment on S. pyogenes APV00083 it was 0.12 µg/mL; in the experiment with A. baumannii ATCC 19606 it was not above 0.06 µg/mL. Besides, the MIC in [1] is 0.06 to 0.25 µg/mL; in experiment [3] it was 0.06 µg/mL; in experiment [4] it was not above 0.016 µg/mL; in experiment [2] it was 0.25 to 4 µg/mL. The MIC50 was 0.12 µg/mL in experiment [1], 1 µg/mL in experiment [2] and not above 0.06 µg/mL in experiment [5]. The MIC90 in [1] was 0.25 µg/mL; in experiment [2], 2 µg/mL; in [5], not above 0.06 µg/mL. In [5], this molecule registered an MIC range not above 0.06 µg/mL.

For the molecule `O=c1oc2ccc(F)cc2c2[nH]c(CN[C@H]3CC[C@H](n4c(=O)cnc5ncc(F)cc54)CC3)cc12` [Compound 4, 8-fluoro-2-({[trans-4-(7-fluoro-2-oxopyrido[2,3-b]pyrazin-1(2H)-yl)cyclohexyl]amino}methyl)[1]benzopyrano[4,3-b]pyrrol-4(1H)-one (formate salt)], the MIC in the experiment on E. coli 4SI was 0.25 µg/mL; against A. baumannii APV00473 it was 0.12 µg/mL; in the experiment on S. pyogenes APV00074 it was 0.12 µg/mL; against S. pyogenes APV00083 it was 0.12 µg/mL; with A. baumannii ATCC 19606, 0.5 µg/mL; in experiment [3], not above 0.016 µg/mL. This molecule yielded an MIC in experiment [4] of 0.03 µg/mL. In experiment [5], this molecule yielded an MIC range not above 0.06 to 0.5 µg/mL. Also, in experiment [5], the MIC50 was 0.12 µg/mL. Besides, the MIC90 in [5] amounted to 0.5 µg/mL.

With `COc1cnc2ncc(=O)n([C@H]3CC[C@H](NCc4cc5c(=O)oc6ccc(F)cc6c5[nH]4)CC3)c2c1` [Compound 5, 8-Fluoro-2-({[trans-4-(7-methoxy-2-oxopyrido[2,3-b]pyrazin-1(2H)-yl)cyclohexyl]amino}methyl)[1]benzopyrano[4,3-b]pyrrol-4(1H)-one hydrochloride], the MIC against C. difficile ATCC 700057 was 0.25 µg/mL; against E. coli 4SI, 0.5 µg/mL; against A. baumannii APV00473 it was 0.5 µg/mL; in the experiment with S. pyogenes APV00074, 0.12 µg/mL; with S. pyogenes APV00083, not above 0.06 µg/mL; against A. baumannii ATCC 19606, 1 µg/mL. Moreover, the MIC was 0.06 to 1 µg/mL in experiment [1], not above 0.016 µg/mL in experiment [3], 0.03 µg/mL in experiment [4] and 0.5 to 16 µg/mL in [2]. In addition, the MIC50 in experiment [1] stood at 0.5 µg/mL; in experiment [2], 2 µg/mL; in experiment [5], 0.12 µg/mL. The MIC90 in experiment [1] turned out to be 1 µg/mL; in [2], 4 µg/mL; in experiment [5], 0.5 µg/mL. The MIC range in experiment [5] was not above 0.06 to 0.5 µg/mL.
